Source: patent EP4755888A1 (ILAb Co., Ltd., priority 2023, dated 2025)
pIC50: −log10 of the molar value.

What follows are molecules tested against PD-1/PD-L1 (Homo sapiens, UniProt Q9NZQ7) (assay: TR-FRET PD-1/PD-L1 binding inhibition at the molecular level (free proteins)). Conditions: Tag1-PD-L1 and Tag2-PD-1 proteins, twelve concentrations from 200 nM, 2 hours at room temperature, read-out: FRET assay (IC50).
PD-1/PD-L1, sequence (Q9NZQ7 19-238 limits assumed): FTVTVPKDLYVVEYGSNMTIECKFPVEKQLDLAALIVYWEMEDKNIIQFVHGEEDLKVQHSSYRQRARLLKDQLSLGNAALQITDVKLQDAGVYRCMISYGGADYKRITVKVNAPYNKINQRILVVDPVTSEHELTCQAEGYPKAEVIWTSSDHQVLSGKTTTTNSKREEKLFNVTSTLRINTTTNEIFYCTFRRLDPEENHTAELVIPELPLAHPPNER
In short: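 HTRF read-out at 665/620 nm after 2 h at room temperature. Detection used anti-Tag1 Eu cryptate plus anti-Tag2 XL665 antibodies. Tagged PD-L1 and PD-1 proteins were pre-mixed with compound across twelve […] 1:2 dilutions starting at 200 nM.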
With `COc1nc(-c2cccc(-c3cccc(-c4cc5n(n4)CCCC5NCC(=O)O)c3C)c2C)cnc1CNC[C@@H]1CCC(=O)N1` (stereo partly drawn) [Compound 163, 2-((2-(3'-(6-methoxy-5-(((((S)-5-oxopyrrolidin-2-yl)methyl)amino)methyl)pyrazin-2-yl)-2,2'-dimethyl-[1,1'-biphenyl]-3-yl)-4,5,6,7-tetrahydropyrazolo[1,5-a]pyridin-4-yl)amino)acetic acid] the pIC50 was 7.00 to 8.00.
For `COc1nc(-c2cccc(-c3cccc(-c4cc5n(n4)CCCC5N4CC[C@@H](O)C4)c3C)c2C)cnc1CNC[C@@H]1CCC(=O)N1` (stereo partly drawn) [Compound 164, (5S)-5-((((5-(3'-(4-((R)-3-hydroxypyrrolidin-1-yl)-4,5,6,7-tetrahydropyrazolo[1,5-a]pyridin-2-yl)-2,2'-dimethyl-[1,1'-biphenyl]-3-yl)-3-methoxypyrazin-2-yl)methyl)amino)methyl)pyrrolidin-2-one], the pIC50 was 7.00 to 8.00.
`COc1nc(-c2cccc(-c3cccc(-c4cc5n(n4)CCCC5N4CC[C@@H](C(=O)O)C4)c3C)c2C)cnc1CNC[C@@H]1CCC(=O)N1` (stereo partly drawn) [Compound 165, (3R)-1-(2-(3'-(6-methoxy-5-(((((S)-5-oxopyrrolidin-2-yl)methyl)amino)methyl)pyrazin-2-yl)-2,2'-dimethyl-[1,1'-biphenyl]-3-yl)-4,5,6,7-tetrahydropyrazolo[1,5-a]pyridin-4-yl)pyrrolidine-3-carboxylic acid] gave a pIC50 of over 8.00.
`COc1nc(-c2cccc(-c3cccc(-c4cc5n(n4)CCCC5N4CCC(O)CC4)c3C)c2C)cnc1CNC[C@@H]1CCC(=O)N1` (stereo partly drawn) [Compound 166, (5S)-5-((((5-(3'-(4-(4-hydroxypiperidin-1-yl)-4,5,6,7-tetrahydropyrazolo[1,5-a]pyridin-2-yl)-2,2'-dimethyl-[1,1'-biphenyl]-3-yl)-3-methoxypyrazin-2-yl)methyl)amino)methyl)pyrrolidin-2-one] was tested, and the pIC50 was 7.00 to 8.00.
Molecule `COc1nc(-c2cccc(-c3cccc(-c4cc5n(n4)CCCC5N4CCC(C(=O)O)CC4)c3C)c2C)cnc1CNC[C@@H]1CCC(=O)N1` (stereo partly drawn) [Compound 167, 1-(2-(3'-(6-methoxy-5-(((((S)-5-oxopyrrolidin-2-yl)methyl)amino)methyl)pyrazin-2-yl)-2,2'-dimethyl-[1,1'-biphenyl]-3-yl)-4,5,6,7-tetrahydropyrazolo[1,5-a]pyridin-4-yl)piperidine-4-carboxylic acid] has a pIC50 of 7.00 to 8.00.
`COc1nc(-c2cccc(-c3cccc(-c4cc5n(n4)CCCC5NCCO)c3Cl)c2Cl)cnc1CNC[C@@H]1CCC(=O)N1` (stereo partly drawn) [Compound 168, (5S)-5-((((5-(2,2'-dichloro-3'-(4-((2-hydroxyethyl)amino)-4,5,6,7-tetrahydropyrazolo[1,5-a]pyridin-2-yl)-[1,1'-biphenyl]-3-yl)-3-methoxypyrazin-2-yl)methyl)amino)methyl)pyrrolidin-2-one] was tested, and the pIC50 was over 8.00.
Molecule `COc1nc(-c2cccc(-c3cccc(-c4cc5n(n4)CCCC5NCC(=O)O)c3Cl)c2Cl)cnc1CNC[C@@H]1CCC(=O)N1` (stereo partly drawn) [Compound 169, 2-((2-(2,2'-dichloro-3'-(6-methoxy-5-(((((S)-5-oxopyrrolidin-2-yl)methyl)amino)methyl)pyrazin-2-yl)-[1,1'-biphenyl]-3-yl)-4,5,6,7-tetrahydropyrazolo[1,5-a]pyridin-4-yl)amino)acetic acid] has a pIC50 of over 8.00.
`COc1nc(-c2cccc(-c3cccc(-c4cc5n(n4)CCCC5N4CC[C@@H](O)C4)c3Cl)c2Cl)cnc1CNC[C@@H]1CCC(=O)N1` (stereo partly drawn) [Compound 170, (5S)-5-((((5-(2,2'-dichloro-3'-(4-((R)-3-hydroxypyrrolidin-1-yl)-4,5,6,7-tetrahydropyrazolo[1,5-a]pyridin-2-yl)-[1,1'-biphenyl]-3-yl)-3-methoxypyrazin-2-yl)methyl)amino)methyl)pyrrolidin-2-one] gave a pIC50 of 7.00 to 8.00.
In the case of `Cc1c(Nc2nccc3cc(CN4CC[C@@H](O)C4)cnc23)cccc1-c1cccc(-c2cc3n(n2)CCCC3NCCO)c1C` (stereo partly drawn) [Compound 174, (3R)-1-((8-((3'-(4-((2-hydroxyethyl)amino)-4,5,6,7-tetrahydropyrazolo[1,5-a]pyridin-2-yl)-2,2'-dimethyl-[1,1'-biphenyl]-3-yl)amino)-1,7-naphthyridin-3-yl)methyl)pyrrolidin-3-ol], the pIC50 was over 8.00.
`CC(=O)NCCNC1CCCn2nc(-c3cccc(-c4cccc(Nc5nccc6cc(CN7CC[C@@H](O)C7)cnc56)c4C)c3C)cc21` (stereo partly drawn) [Compound 175, N-(2-((2-(3'-((3-(((R)-3-hydroxypyrrolidin-1-yl)methyl)-1,7-naphthyridin-8-yl)amino)-2,2'-dimethyl-[1,1'-biphenyl]-3-yl)-4,5,6,7-tetrahydropyrazolo[1,5-a]pyridin-4-yl)amino)ethyl)acetamide] was tested, and the pIC50 was over 8.00.
In the case of `Cc1c(Nc2nccc3cc(CN4CC[C@@H](O)C4)cnc23)cccc1-c1cccc(-c2cc3n(n2)CCCC3NC[C@@H]2CCC(=O)N2)c1C` (stereo partly drawn) [Compound 176, (5S)-5-(((2-(3'-((3-(((R)-3-hydroxypyrrolidin-1-yl)methyl)-1,7-naphthyridin-8-yl)amino)-2,2'-dimethyl-[1,1'-biphenyl]-3-yl)-4,5,6,7-tetrahydropyrazolo[1,5-a]pyridin-4-yl)amino)methyl)pyrrolidin-2-one], the pIC50 was 7.00 to 8.00.
Molecule `Cc1c(Nc2nccc3cc(CN4CC[C@@H](O)C4)cnc23)cccc1-c1cccc(-c2cc3n(n2)CCCC3N2CC[C@@H](O)C2)c1C` (stereo partly drawn) [Compound 177, (3R)-1-((8-((3'-(4-((R)-3-hydroxypyrrolidin-1-yl)-4,5,6,7-tetrahydropyrazolo[1,5-a]pyridin-2-yl)-2,2'-dimethyl-[1,1'-biphenyl]-3-yl)amino)-1,7-naphthyridin-3-yl)methyl)pyrrolidin-3-ol] has a pIC50 of over 8.00.
Molecule `Cc1c(Nc2nccc3cc(CN4CC[C@@H](O)C4)cnc23)cccc1-c1cccc(-c2cc3n(n2)CCCC3N2CC[C@@H](C(=O)O)C2)c1C` (stereo partly drawn) [Compound 178, (3R)-1-(2-(3'-((3-(((R)-3-hydroxypyrrolidin-1-yl)methyl)-1,7-naphthyridin-8-yl)amino)-2,2'-dimethyl-[1,1'-biphenyl]-3-yl)-4,5,6,7-tetrahydropyrazolo[1,5-a]pyridin-4-yl)pyrrolidine-3-carboxylic acid] has a pIC50 of over 8.00.
Molecule `Cc1c(Nc2nccc3cc(CN4CC[C@@H](O)C4)cnc23)cccc1-c1cccc(-c2cc3n(n2)CCCC3NCC(=O)O)c1C` (stereo partly drawn) [Compound 179, 2-((2-(3'-((3-(((R)-3-hydroxypyrrolidin-1-yl)methyl)-1,7-naphthyridin-8-yl)amino)-2,2'-dimethyl-[1,1'-biphenyl]-3-yl)-4,5,6,7-tetrahydropyrazolo[1,5-a]pyridin-4-yl)amino)acetic acid] has a pIC50 of over 8.00.
`OCCNC1CCCn2nc(-c3cccc(-c4cccc(Nc5nccc6cc(CN7CC[C@@H](O)C7)cnc56)c4Cl)c3Cl)cc21` (stereo partly drawn) [Compound 180, (3R)-1-((8-((2,2'-dichloro-3'-(4-((2-hydroxyethyl)amino)-4,5,6,7-tetrahydropyrazolo[1,5-a]pyridin-2-yl)-[1,1'-biphenyl]-3-yl)amino)-1,7-naphthyridin-3-yl)methyl)pyrrolidin-3-ol] gave a pIC50 of over 8.00.
For `CC(=O)NCCNC1CCCn2nc(-c3cccc(-c4cccc(Nc5nccc6cc(CN7CC[C@@H](O)C7)cnc56)c4Cl)c3Cl)cc21` (stereo partly drawn) [Compound 181, N-(2-((2-(2,2'-dichloro-3'-((3-(((R)-3-hydroxypyrrolidin-1-yl)methyl)-1,7-naphthyridin-8-yl)amino)-[1,1'-biphenyl]-3-yl)-4,5,6,7-tetrahydropyrazolo[1,5-a]pyridin-4-yl)amino)ethyl)acetamide], the pIC50 was over 8.00.
